The target of experiment [1] is T1, Chloride anion exchanger (Mus musculus) (UniProt Q9WVC8).
T1 sequence (whole entry): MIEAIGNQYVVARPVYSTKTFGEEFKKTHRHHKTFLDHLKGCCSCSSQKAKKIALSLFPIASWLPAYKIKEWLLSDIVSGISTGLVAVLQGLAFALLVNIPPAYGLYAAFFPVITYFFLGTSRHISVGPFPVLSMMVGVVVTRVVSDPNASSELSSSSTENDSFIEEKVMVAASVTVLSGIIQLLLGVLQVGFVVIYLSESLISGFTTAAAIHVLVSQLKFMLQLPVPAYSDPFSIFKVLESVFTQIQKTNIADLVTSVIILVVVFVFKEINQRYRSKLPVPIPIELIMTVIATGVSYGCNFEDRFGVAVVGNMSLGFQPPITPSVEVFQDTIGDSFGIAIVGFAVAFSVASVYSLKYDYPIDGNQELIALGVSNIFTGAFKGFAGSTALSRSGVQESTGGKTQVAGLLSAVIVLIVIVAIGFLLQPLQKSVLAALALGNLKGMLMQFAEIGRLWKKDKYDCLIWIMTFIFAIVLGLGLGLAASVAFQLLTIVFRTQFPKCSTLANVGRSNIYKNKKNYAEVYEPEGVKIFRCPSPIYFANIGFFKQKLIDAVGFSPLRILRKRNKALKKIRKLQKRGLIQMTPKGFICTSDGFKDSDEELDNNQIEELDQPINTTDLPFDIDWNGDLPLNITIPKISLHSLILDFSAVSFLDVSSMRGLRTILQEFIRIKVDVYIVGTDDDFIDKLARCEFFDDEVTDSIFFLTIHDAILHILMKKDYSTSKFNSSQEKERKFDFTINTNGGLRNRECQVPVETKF
The experiment in a line: Inhibition of myc-tagged mouse Slc26a3 expressed in COS7 co-expressing EYFP-HIF assessed as effect on SCN(-) gradient at 25 uM by YFP-based fluorescence quenching assay.

The test system of experiment [2] is Mus musculus. The experiment in a line: Potentiation of 20 mg/kg, ip furosemide-induced acute diuretic action in CD1 mouse assessed as induction of metabolic alkalosis at 10 mg/kg, ip. The format is functional, organism-based.

Each structure is given as a SMILES string. Calls of active or inactive are those of the source. No cut-off for these calls is given here.

For `Cc1n[nH]c(-c2cc(S(=O)(=O)NC3CCCc4ccccc43)c(C)s2)c1C` (configuration not stated), the inhibition entry in experiment [1] is “inactive”. The outcome in experiment [2] was Active.
